Assay results taken from patent US4703061A, “Gamma-aminobutyric acid derivatives, process for production thereof, and use thereof as medicaments” (priority 1984, dated 1987).
Structures can show the parent of a compound that is named as a salt.

Assays:
[1] = test system: motor activity induced by atropine; experiment: Antagonistic effect against atropine (automex method); format: in vivo, ddY-strain male mice
Description: (§1) In Tests 1 to 4 given below, ddY-strain male mice (body weight 20-25 g) were used, and the experiments were carried out in a semi-soundproof, constant-temperature room kept at a temperature of 23±1° C. and a humidity of 55±2%. The mice were allowed to take feed and water freely.
Test 4: Antagonistic effect against atropine (automex method)
Each of the test compounds was intraperitoneally administered to mice divided into 6-membered groups, and immediately then, atropine was subcutaneously injected into the mice in a dose of 30 mg/kg. The effect of each test compound on the enhancement of motor activity induced by atropine was examined in accordance with the automex method.

[2] = test system: motor activity enhanced by methamphetamine; experiment: Antagonistic effect against methamphetamine (automex method); format: in vivo, ddY-strain male mice; details: for Motor activity (total number of counts): 500 mg/kg i.p. + methamphetamine 3 mg/kg s.c.
Description: as §1
Test 2: Antagonistic effect against methamphetamine (automex method)
Mice were used in 5-membered groups. Each of the test compounds was intraperitoneally administered to the mice in a predetermined dose, and immediately then, the mice were subcutaneously injected with methamphetamine in a dose of 3 mg/kg. The action of the test compounds on motor activity enhanced by methamphetamine was examined in accordance with the automex method given above.

[3] = test system: sleeping induced by pentobarbital; experiment: Effect of prolonging the time of sleeping induced by pentobarbital; format: in vivo, ddY-strain male mice; details: pentobarbital sodium 50 mg/kg s.c.
Description: as §1
Test 3: Effect of prolonging the time of sleeping induced by pentobarbital
The effects of the test compounds on sleeping induced by pentobarbital were examined. The disappearance of righting reflex for 5 seconds or more was used as an index of sleeping. Mice were divided into 10-membered groups. Each of the test compounds was intraperitoneally administered to the mice in the doses indicated. Immediately then, pentobarbital sodium salt was subcutaneously injected into the mice in a dose of 50 mg/kg, and the sleeping time was compared with that of a group to which pentobarbital alone was injected (control).

[4] = test system: cycloheximide-induced amnesia model; experiment: Effects on CXM-induced amnesia (step-down retention test); format: in vivo, ddY-strain male mice; details: for Escape learning latency (mean ± S.E.) / Step-down latency (mean ± S.E.): retention test 24 hours
Description: The test animals used were ddY-strain male mice (body weight 30-35 g). The experiment was carried out indoors at about 20° C., and the mice were allowed to take feed and water freely. 2. Effects on memorized behaviors
A device comprised of a floor grid surrounded on four sides by acrylic glass walls each having a lateral dimension of 21 cm and a wooden platform, 4×4×4 cm in size, fixed centrally to the floor grid was placed in a wooden semi-soundproof box having a size of 21×21×40 cm with a 15W electric bulb suspended from its ceiling.
The floor grid consisted of stainless steel rods, 3 mm in diameter, arranged at intervals of 8 mm. An intermittent electric shock (1 Hz, 0.5 sec., 60 V DC) was applied to the grid by an electric impulse apparatus and an isolator.
A mouse was placed in a predetermined direction on the platform. Immediately after the mouse stepped down onto the floor grid (when the mouse's four limbs left the platform), an electric shock was applied to the floor grid, and the intermittent application of the electric shock was continued until the mouse climbed up the platform to escape from the electric shock. The time which elapsed until the mouse stepped down from the platform (SDL, step down latency) and the time which elapsed until the mouse escaped to the platform from the electric shock (ELL, escape learning latency) were measured.
By the same procedure as in the training test, a mouse was placed on the platform, and its step down latency (SDL) was measured. The cut-off time was 300 seconds.
After the mouse stepped down, or the cut-off time elapsed, the mouse was placed on the floor grid at a corner of the device with its head directed in a direction opposite to the platform. An electric shock was applied to the mouse and its escape learning latency (ELL) was measured.
Mice divided into groups each consisting of not less than 20 mice were subjected to the training test, and immediately then subcutaneously injected with CXM (150 mg/kg). Twenty-four hours later, the mice was subjected to the retention test.
Immediately after administration of CXM or application of ECS, a 0.9% normal saline solution of each of the test compounds was intraperitoneally administered to the mice. Separately, a 5% gum arabic solution of CXM was administered to the mice in a control group.

[5] = background statement; cited from earlier work
[6] = background statement; cited from earlier work; remark: listed apart in the source
[7] = 500 mg/kg i.p., CXM 150 mg/kg s.c.
[8] = 1000 mg/kg i.p., CXM 150 mg/kg s.c.

**Q.** For CN1[C@@H]2CC[C@H]1C[C@@H](OC(=O)C(CO)c1ccccc1)C2 (stereo partly drawn) [Atropine, atropine], which “Motor activity (total number of counts)” value ([1]; atropine alone, 30 mg/kg, 5 minutes) is on record?
**A.** 59 counts

**Q.** And the “Motor activity (total number of counts)” value ([1]; atropine alone, 30 mg/kg, 10 minutes)?
**A.** 233 counts

**Q.** What about the “Motor activity (total number of counts)” value ([1]; atropine alone, 30 mg/kg, 15 minutes) of the same compound?
**A.** 425 counts

**Q.** What about the “Motor activity (total number of counts)” value ([1]; atropine alone, 30 mg/kg, 20 minutes) of the same compound?
**A.** 620 counts

**Q.** And the “Motor activity (total number of counts)” value ([1]; atropine alone, 30 mg/kg, 25 minutes)?
**A.** 806 counts

**Q.** And the “Motor activity (total number of counts)” value ([1]; atropine alone, 30 mg/kg, 30 minutes)?
**A.** 964 counts

**Q.** For CC(C)(CO)C(O)C(=O)NCCCC(=O)O (stereo not drawn) [Ca salt of hopantenic acid, Calcium 4(2,4-dihydroxy3,3-dimethyl-butylamide)butyrate, reference compound], which “Motor activity (total number of counts)” value ([2]; 5 minutes) is on record?
**A.** 26 counts

**Q.** What about the “Motor activity (total number of counts)” value ([2]; 10 minutes) of the same compound?
**A.** 55 counts

**Q.** And the “Motor activity (total number of counts)” value ([2]; 15 minutes)?
**A.** 94 counts

**Q.** What about the “Motor activity (total number of counts)” value ([2]; 20 minutes) of the same compound?
**A.** 144 counts

**Q.** What about the “Motor activity (total number of counts)” value ([2]; 25 minutes) of the same compound?
**A.** 273 counts

**Q.** And the “Motor activity (total number of counts)” value ([2]; 30 minutes)?
**A.** 408 counts

**Q.** And the “antagonistic effect against the increase of motor activity induced by methamphetamine” value ([2]; 500 mg/kg, result in words)?
**A.** scarcely observed

**Q.** What about the Sleeping time ([3]; 1000 mg/kg i.p.) of the same compound?
**A.** 57.0 ± 6.7 min

**Q.** What about the Sleeping time ([3]; 2000 mg/kg i.p.) of the same compound?
**A.** 67.0 ± 5.9 min

**Q.** What about the “Motor activity (total number of counts)” value ([1]; 600 mg/kg i.p. + atropine 30 mg/kg s.c., 5 minutes) of the same compound?
**A.** 16 counts

**Q.** What about the “Motor activity (total number of counts)” value ([1]; 600 mg/kg i.p. + atropine 30 mg/kg s.c., 10 minutes) of the same compound?
**A.** 16 counts

**Q.** And the “Motor activity (total number of counts)” value ([1]; 600 mg/kg i.p. + atropine 30 mg/kg s.c., 15 minutes)?
**A.** 29 counts

**Q.** And the “Motor activity (total number of counts)” value ([1]; 600 mg/kg i.p. + atropine 30 mg/kg s.c., 20 minutes)?
**A.** 56 counts

**Q.** What about the “Motor activity (total number of counts)” value ([1]; 600 mg/kg i.p. + atropine 30 mg/kg s.c., 25 minutes) of the same compound?
**A.** 88 counts

**Q.** What about the “Motor activity (total number of counts)” value ([1]; 600 mg/kg i.p. + atropine 30 mg/kg s.c., 30 minutes) of the same compound?
**A.** 151 counts

**Q.** What about the “Escape learning latency (mean ± S.E.)” value [4, 7] of the same compound?
**A.** 10.3 ± 0.7 s

**Q.** And the “Step-down latency (mean ± S.E.)” value [4, 7]?
**A.** 122.3 ± 13.0 s

**Q.** And the “Escape learning latency (mean ± S.E.)” value [4, 8]?
**A.** 8.2 ± 1.0 s

**Q.** What about the “Step-down latency (mean ± S.E.)” value [4, 8] of the same compound?
**A.** 187.7 ± 19.7 s

**Q.** What about the “Escape learning latency (mean ± S.E.)” value ([4]; 1000 mg/kg i.p., without CXM) of the same compound?
**A.** 5.6 ± 0.8 s

**Q.** And the “Step-down latency (mean ± S.E.)” value ([4]; 1000 mg/kg i.p., without CXM)?
**A.** 275.9 ± 9.7 s

**Q.** And the memory activating action ([4]; without CXM, vs control group, result in words)?
**A.** did not show memory activating action

**Q.** What does the source list for NCCCC(=O)O [gamma-aminobutyric acid]?
**A.** transmigration through the blood brain barrier [5]: hardly transmigrates through the blood brain barrier; excretion into urine [6]: easily excreted into urine
